Test results from patent US20250282754A1, “BICYCLIC COMPOUNDS AND THEIR USE AS PEST CONTROL AGENTS” (Pl Industries Ltd., priority 2022, published 2025).

Assays:
Nilaparvata lugens = Nilaparvata lugens seedling dip test (paddy seedlings, third instar nymphs); type: in vivo; conditions: dead and moribund third instar nymphs 72 h after release, compared to untreated controls, read-out: percent mortality
Description: The seedling dip method was used for testing, wherein the required quantity of the compound was weighed and dissolved in a tube containing a solvent solution. The tube was put on a vortex at 2000 rpm for proper mixing and then diluted with a 0.01% Triton-X solution to the desired test concentration. Paddy seedlings were dipped in the compound solution for 10 seconds, shade dried for 20 min and then the seedlings were placed in glass test tubes with the roots kept in water. 15 third instar nymphs of Nilaparvata lugens were released into each test tube and the tubes were kept in a plant growth chamber at a temperature of 25° C. and relative humidity of 75%. Observations on dead, moribund and alive nymphs were recorded 72 h after the release. Percent mortality was calculated by combining dead and moribund nymphs and comparing the result to the one of the untreated controls. The compounds

Bemisia tabaci = Bemisia tabaci leaf dip test (brinjal leaves, whitefly adults); type: in vivo; conditions: foliar, dead and moribund whitefly adults 72 h after release, compared to untreated controls, read-out: percent mortality
Description: The leaf dip method was used for testing, wherein the required quantity of the compound was weighed and dissolved in a tube containing a solvent solution. The tube was put on a vortex at 2000 rpm for proper mixing and then diluted with a 0.01% Triton-X solution to the desired test concentration. Brinjal leaves were dipped in the compound solution for 10 seconds; shade dried for 20 min and then placed, with the abaxial side of the leaf up, on 4 ml of a solidified 1% agar-agar solution in respective container caps. Known numbers of freshly emerged whitefly adults were collected, using a modified aspirator, and released into a perforated container in which the cap containing the treated leaf was placed. The containers were kept in a plant growth chamber at a temperature of 25° C. and relative humidity of 70%. Observations on dead, moribund and alive adults were recorded 72 h after the release. Percent mortality was calculated by combining dead and moribund adults and comparing the result to the one of the untreated controls. The compounds 1 9 11 18 25 28 29 30 31

| Structure (SMILES) | mortality at 300 ppm (Nilaparvata lugens) [%] | mortality at 300 ppm (Bemisia tabaci) [%] |
| --- | --- | --- |
| O=S(CC1CC1)(=NC1CC1)c1ccc2nn(-c3cncnc3)cc2c1 (centres unmarked) [Compound 446] | ≥ 70 | ≥ 70 |
| COc1nn(-c2ccc3nn(-c4cncc(F)c4)cc3c2)c(=O)n1Cc1ccccc1F [Compound 355, 4-(2-fluorobenzyl)-2-(2-(5-fluoropyridin-3-yl)-2H-indazol-5-yl)-5-methoxy-2,4-dihydro-3H-1,2,4-triazol-3-one] | ≥ 70 | ≥ 70 |
| CCCS(=O)(CCC)=Nc1cccc2nn(-c3cccnc3)cc12 [Compound 78] | ≥ 70 | ≥ 70 |
| CC(C)S(=O)(=Nc1ccc2nn(-c3cccnc3)cc2c1)c1ccc(F)cc1 (centres unmarked) [Compound 38] | ≥ 70 | ≥ 70 |
| CS(=O)(=Nc1ccc2nn(-c3cccnc3)cc2c1)c1ccc(Cl)cc1 (centres unmarked) [Compound 26] | ≥ 70 | – |
| CC(C)CS(=O)(CC(C)C)=Nc1ccc2nn(-c3cncnc3)c(Cl)c2c1 [Compound 181] | ≥ 70 | – |
| CCS(=O)(CC)=Nc1ccc2nn(-c3cncnc3)cc2c1 [Compound 11] | ≥ 70 | ≥ 70 |
| COc1nn(-c2ccc3nn(-c4cccnc4)cc3c2)c(=O)n1C1CC1 [Compound 127, 4-cyclopropyl-5-methoxy-2-(2-(pyridin-3-yl)-2H-indazol-5-yl)-2,4-dihydro-3H-1,2,4-triazol-3-one] | ≥ 70 | – |
| N=S(=O)(CC1CC1)c1ccc2nn(-c3cccnc3)c(Cl)c2c1 (centres unmarked) [Compound 454, (3-chloro-2-(pyridin-3-yl)-2H-indazol-5-yl)(cyclopropylmethyl)(imino)-λ^6-sulfanone] | ≥ 70 | – |
| COc1nn(-c2ccc3nn(-c4ccc(C)nc4)cc3c2)c(=O)n1C [Compound 115, 5-methoxy-4-methyl-2-(2-(6-methylpyridin-3-yl)-2H-indazol-5-yl)-2,4-dihydro-3H-1,2,4-triazol-3-one] | ≥ 70 | – |
| CCOc1nn(-c2ccc3nn(-c4cccnc4)cc3c2)c(=O)n1Cc1ccccc1F [Compound 358, 5-ethoxy-4-(2-fluorobenzyl)-2-(2-(pyridin-3-yl)-2H-indazol-5-yl)-2,4-dihydro-3H-1,2,4-triazol-3-one] | ≥ 70 | ≥ 70 |
| CS(C)(=O)=Nc1ccc2nn(-c3cncnc3)cc2c1 [Compound 9] | ≥ 70 | ≥ 70 |
| CCOc1nn(-c2cccc3nn(-c4cccnc4)cc23)c(=O)n1Cc1ccc(F)cc1 [Compound 343, 5-ethoxy-4-(4-fluorobenzyl)-2-(2-(pyridin-3-yl)-2H-indazol-4-yl)-2,4-dihydro-3H-1,2,4-triazol-3-one] | ≥ 70 | – |
| CC(C)S(=O)(=NC(=O)C(F)(F)F)c1ccc2nn(-c3cccnc3)cc2c1 (centres unmarked) [Compound 394] | ≥ 70 | – |
| COc1nn(-c2ccc3nn(-c4cccnc4)cc3c2)c(=O)n1Cc1cccc(F)c1 [Compound 126, 4-(3-fluorobenzyl)-5-methoxy-2-(2-(pyridin-3-yl)-2H-indazol-5-yl)-2,4-dihydro-3H-1,2,4-triazol-3-one] | ≥ 70 | ≥ 70 |
| Cc1ccc(S(=O)(=Nc2ccc3nn(-c4cccnc4)cc3c2)N(C)C)cc1 (centres unmarked) [Compound 93, N,N,4-trimethyl-N′-(2-(pyridin-3-yl)-2H-indazol-5-yl)benzenesulfonimidamide] | ≥ 70 | ≥ 70 |
| CS(=O)(=Nc1ccc2nn(-c3cccnc3)cc2c1)c1cccnc1 (centres unmarked) [Compound 30] | ≥ 70 | ≥ 70 |
| CCOc1nn(-c2cccc3nn(-c4cncnc4)cc23)c(=O)n1Cc1ccccc1F [Compound 360, 5-ethoxy-4-(2-fluorobenzyl)-2-(2-(pyrimidin-5-yl)-2H-indazol-4-yl)-2,4-dihydro-3H-1,2,4-triazol-3-one] | ≥ 70 | – |
| CS(=O)(Cc1ccccc1)=Nc1ccc2nn(-c3cncnc3)cc2c1 (centres unmarked) [Compound 16] | ≥ 70 | – |
| CS(C)(=O)=Nc1cccc2nn(-c3cccnc3)cc12 [Compound 72] | ≥ 70 | ≥ 70 |
| CCCCS(=N)(=O)c1ccc2nn(-c3cccnc3)cc2c1 (centres unmarked) [Compound 385, butyl(imino)(2-(pyridin-3-yl)-2H-indazol-5-yl)-λ^6-sulfanone] | ≥ 70 | ≥ 70 |
| COc1nn(-c2cccc3nn(-c4cccnc4)cc23)c(=O)n1C [Compound 125, 5-methoxy-4-methyl-2-(2-(pyridin-3-yl)-2H-indazol-4-yl)-2,4-dihydro-3H-1,2,4-triazol-3-one] | ≥ 70 | – |
| CC(C)S(=O)(=NC(=O)C(F)(F)F)c1ccc2nn(-c3cncnc3)cc2c1 (centres unmarked) [Compound 417] | ≥ 70 | – |
| COc1nn(-c2ccc3nn(-c4cncc(C)c4)cc3c2)c(=O)n1C [Compound 111, 5-methoxy-4-methyl-2-(2-(5-methylpyridin-3-yl)-2H-indazol-5-yl)-2,4-dihydro-3H-1,2,4-triazol-3-one] | ≥ 70 | – |

| Structure (SMILES) | mortality at 300 ppm (Nilaparvata lugens) [%] | mortality at 300 ppm (Bemisia tabaci) [%] |
| --- | --- | --- |
| CCS(=O)(=Nc1ccnc(C)c1)c1ccc2nn(-c3cncc(F)c3)cc2c1 (centres unmarked) [Compound 464] | ≥ 70 | – |
| CCCCS(=O)(CC)=Nc1ccc2nn(-c3cncc(F)c3)c(Cl)c2c1 (centres unmarked) [Compound 194] | ≥ 70 | – |
| CCCCCS(C)(=O)=Nc1ccc2nn(-c3cccnc3)cc2c1 (centres unmarked) [Compound 27] | ≥ 70 | – |
| CS(C)(=O)=Nc1ccc2nn(-c3cncc(F)c3)cc2c1 [Compound 8] | ≥ 70 | – |
| CCCCCS(C)(=O)=Nc1ccc2nn(-c3cncc(F)c3)cc2c1 (centres unmarked) [Compound 42] | ≥ 70 | – |
| COc1nn(-c2cccc3nn(-c4cccnc4)cc23)c(=O)n1Cc1ccccc1F [Compound 356, 4-(2-fluorobenzyl)-5-methoxy-2-(2-(pyridin-3-yl)-2H-indazol-4-yl)-2,4-dihydro-3H-1,2,4-triazol-3-one] | ≥ 70 | – |
| CS(=O)(=Nc1ccc2nn(-c3cncc(F)c3)cc2c1)c1ccccc1 (centres unmarked) [Compound 14] | ≥ 70 | – |
| COc1nn(-c2cccc3nn(-c4cncnc4)cc23)c(=O)n1Cc1ccccc1F [Compound 357, 4-(2-fluorobenzyl)-5-methoxy-2-(2-(pyrimidin-5-yl)-2H-indazol-4-yl)-2,4-dihydro-3H-1,2,4-triazol-3-one] | ≥ 70 | – |
| CC(C)S(=O)(=NC#N)c1ccc2nn(-c3cccnc3)cc2c1 (centres unmarked) [Compound 392, N-(isopropyl(oxo)(2-(pyridin-3-yl)-2H-indazol-5-yl)-λ^6-sulfaneylidene)cyanamide] | ≥ 70 | – |
| Cc1ccc(S(C)(=O)=Nc2ccc3nn(-c4cccnc4)cc3c2)cc1 (centres unmarked) [Compound 23] | ≥ 70 | – |
| CC(C)S(=O)(=NC(=O)C(F)F)c1ccc2nn(-c3cccnc3)cc2c1 (centres unmarked) [Compound 396] | ≥ 70 | – |
| CC(C)(C)S(C)(=O)=Nc1ccc2nn(-c3cncnc3)cc2c1 (centres unmarked) [Compound 19] | ≥ 70 | – |
| CS(=O)(=Nc1cnc2nn(-c3cccnc3)cc2c1)c1ncccc1F (centres unmarked) [Compound 152] | ≥ 70 | – |
| COc1nn(-c2ccc3nn(-c4cnccc4C)cc3c2)c(=O)n1C [Compound 114, 5-methoxy-4-methyl-2-(2-(4-methylpyridin-3-yl)-2H-indazol-5-yl)-2,4-dihydro-3H-1,2,4-triazol-3-one] | ≥ 70 | – |
| COc1nn(-c2ccc3nn(-c4cccnc4C)cc3c2)c(=O)n1C [Compound 113, 5-methoxy-4-methyl-2-(2-(2-methylpyridin-3-yl)-2H-indazol-5-yl)-2,4-dihydro-3H-1,2,4-triazol-3-one] | ≥ 70 | – |
| COc1nn(-c2ccc3nn(-c4cccnc4)cc3c2)c(=O)n1Cc1ccccc1Cl [Compound 367, 4-(2-chlorobenzyl)-5-methoxy-2-(2-(pyridin-3-yl)-2H-indazol-5-yl)-2,4-dihydro-3H-1,2,4-triazol-3-one] | ≥ 70 | – |
| CS(C)(=O)=Nc1ccc(Cl)c2nn(-c3cncc(F)c3)cc12 [Compound 202] | ≥ 70 | – |
| CS(=O)(Cc1ccccc1)=Nc1ccc2nn(-c3cncc(F)c3)cc2c1 (centres unmarked) [Compound 13] | ≥ 70 | – |
| COc1nn(-c2ccc3nn(-c4cccnc4)c(Cl)c3c2)c(=O)n1C [Compound 347, 2-(3-chloro-2-(pyridin-3-yl)-2H-indazol-5-yl)-5-methoxy-4-methyl-2,4-dihydro-3H-1,2,4-triazol-3-one] | ≥ 70 | – |
| CCOc1nn(-c2cccc3nn(-c4cccnc4)cc23)c(=O)n1Cc1ccccc1F [Compound 359, 5-ethoxy-4-(2-fluorobenzyl)-2-(2-(pyridin-3-yl)-2H-indazol-4-yl)-2,4-dihydro-3H-1,2,4-triazol-3-one] | ≥ 70 | – |
| CS(=O)(=Nc1cnc2nn(-c3cccnc3)cc2c1)c1cccnc1Cl (centres unmarked) [Compound 153] | ≥ 70 | – |
| CC(C)S(C)(=O)=Nc1ccc(Cl)c2nn(-c3cncc(F)c3)cc12 (centres unmarked) [Compound 206] | ≥ 70 | – |
| CS(=O)(=Nc1ccc2nn(-c3cccnc3)cc2c1)c1ccccc1 (centres unmarked) [Compound 21] | ≥ 70 | – |
